Measurements as given in ChEMBL document CHEMBL1141030, “Synthesis and biological evaluation of phloridzin analogs as human concentrative nucleoside transporter 3 (hCNT3) inhibitors” (Bioorg Med Chem Lett, 2009).

Legend:
[1] = molecular target: T1, Solute carrier family 28 member 3 (Homo sapiens, UniProt Q9HAS3); test: Binding affinity to human recombinant CNT3 expressed in pig PK15NTD cells assessed as [3H]uridine uptake by beta-scintillation counter; format: cell-based
T1 sequence (Q9HAS3 whole entry): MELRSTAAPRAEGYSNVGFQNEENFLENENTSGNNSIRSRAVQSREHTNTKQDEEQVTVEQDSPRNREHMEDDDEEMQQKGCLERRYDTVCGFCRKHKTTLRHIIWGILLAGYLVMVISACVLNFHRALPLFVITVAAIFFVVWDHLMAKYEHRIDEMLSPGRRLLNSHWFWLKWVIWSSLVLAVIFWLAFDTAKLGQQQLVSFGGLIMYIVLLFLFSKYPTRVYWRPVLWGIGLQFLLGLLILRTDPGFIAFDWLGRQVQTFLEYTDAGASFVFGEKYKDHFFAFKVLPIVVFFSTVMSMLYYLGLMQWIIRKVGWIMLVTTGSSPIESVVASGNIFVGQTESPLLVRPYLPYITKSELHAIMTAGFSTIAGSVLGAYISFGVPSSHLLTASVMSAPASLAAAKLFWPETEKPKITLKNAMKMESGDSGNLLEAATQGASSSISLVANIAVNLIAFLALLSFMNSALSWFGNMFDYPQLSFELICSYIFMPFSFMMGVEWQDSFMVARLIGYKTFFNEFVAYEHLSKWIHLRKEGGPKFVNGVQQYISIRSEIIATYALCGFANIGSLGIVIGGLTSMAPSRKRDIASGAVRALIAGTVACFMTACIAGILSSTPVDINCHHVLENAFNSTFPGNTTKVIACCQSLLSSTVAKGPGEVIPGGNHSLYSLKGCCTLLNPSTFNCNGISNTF

[2] = molecular target: T2, Equilibrative nucleoside transporter 1 (Homo sapiens, UniProt Q99808); test: Binding affinity to human ENT1 assessed as [3H]uridine uptake by flow cytometry
T2 sequence (Q99808 whole entry): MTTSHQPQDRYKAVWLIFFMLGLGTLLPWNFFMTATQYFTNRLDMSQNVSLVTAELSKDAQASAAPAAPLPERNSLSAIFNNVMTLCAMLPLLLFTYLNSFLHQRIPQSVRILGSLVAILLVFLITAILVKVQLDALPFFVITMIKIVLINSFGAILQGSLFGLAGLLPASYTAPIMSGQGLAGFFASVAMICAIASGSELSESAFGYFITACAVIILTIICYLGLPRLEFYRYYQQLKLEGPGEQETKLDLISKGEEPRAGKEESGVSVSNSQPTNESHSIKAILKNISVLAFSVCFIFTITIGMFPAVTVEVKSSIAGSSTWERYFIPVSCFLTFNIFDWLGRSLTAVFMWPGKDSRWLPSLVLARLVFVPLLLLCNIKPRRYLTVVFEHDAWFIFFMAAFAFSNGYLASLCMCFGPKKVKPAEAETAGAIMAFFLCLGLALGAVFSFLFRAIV

[3] = molecular target: T3, Sodium/nucleoside cotransporter 1 (Homo sapiens, UniProt O00337); test: Inhibition of human CNT1
T3 sequence (O00337 whole entry): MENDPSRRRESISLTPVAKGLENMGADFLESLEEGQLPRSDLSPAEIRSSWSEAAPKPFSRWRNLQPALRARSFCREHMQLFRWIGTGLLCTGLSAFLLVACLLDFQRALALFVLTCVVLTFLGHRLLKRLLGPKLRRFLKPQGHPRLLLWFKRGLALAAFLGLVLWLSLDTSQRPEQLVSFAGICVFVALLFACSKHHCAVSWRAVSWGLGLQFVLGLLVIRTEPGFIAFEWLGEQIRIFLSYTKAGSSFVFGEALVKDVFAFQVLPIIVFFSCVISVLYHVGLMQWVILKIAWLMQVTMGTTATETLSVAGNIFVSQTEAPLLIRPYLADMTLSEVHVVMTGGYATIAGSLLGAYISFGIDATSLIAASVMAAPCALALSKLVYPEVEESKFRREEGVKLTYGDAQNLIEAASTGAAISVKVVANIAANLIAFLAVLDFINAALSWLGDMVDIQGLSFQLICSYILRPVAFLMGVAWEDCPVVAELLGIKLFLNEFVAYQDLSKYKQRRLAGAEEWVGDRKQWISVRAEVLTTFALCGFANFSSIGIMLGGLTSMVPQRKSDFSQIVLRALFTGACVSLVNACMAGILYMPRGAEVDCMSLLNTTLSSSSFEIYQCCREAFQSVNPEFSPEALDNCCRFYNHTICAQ

[4] = molecular target: T4, Sodium/nucleoside cotransporter 2 (Homo sapiens, UniProt O43868); test: Inhibition of human CNT2
T4 sequence (O43868 whole entry): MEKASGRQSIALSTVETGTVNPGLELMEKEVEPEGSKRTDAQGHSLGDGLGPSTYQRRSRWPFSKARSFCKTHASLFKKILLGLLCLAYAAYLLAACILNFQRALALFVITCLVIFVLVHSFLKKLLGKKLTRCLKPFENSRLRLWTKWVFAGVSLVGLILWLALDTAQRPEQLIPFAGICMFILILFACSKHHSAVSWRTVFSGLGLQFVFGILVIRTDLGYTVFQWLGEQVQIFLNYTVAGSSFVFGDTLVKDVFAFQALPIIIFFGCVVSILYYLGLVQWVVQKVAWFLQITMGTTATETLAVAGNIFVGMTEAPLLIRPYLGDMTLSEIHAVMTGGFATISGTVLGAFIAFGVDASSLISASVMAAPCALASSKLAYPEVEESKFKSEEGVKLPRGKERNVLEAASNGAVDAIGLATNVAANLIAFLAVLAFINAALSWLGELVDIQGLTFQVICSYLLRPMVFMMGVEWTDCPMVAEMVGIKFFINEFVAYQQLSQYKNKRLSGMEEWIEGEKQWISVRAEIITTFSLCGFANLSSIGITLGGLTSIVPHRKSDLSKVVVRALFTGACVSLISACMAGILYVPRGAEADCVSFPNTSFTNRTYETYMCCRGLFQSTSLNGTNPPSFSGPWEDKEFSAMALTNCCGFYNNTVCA

Row | SMILES | Ki [1] [µM] | further results
1 | CC(=O)c1c(O)cccc1O | > 100 | 
2 | O=[N+]([O-])c1ccc(CSc2ncnc3c2ncn3[C@@H]2O[C@H](CO)[C@@H](O)[C@H]2O)cc1 [NITROBENZYLMERCAPTOPURINE RIBONUCLEOSIDE] | 88 | 
3 | CC(=O)c1cc(O)cc(O[C@H]2O[C@H](CO)[C@@H](O)[C@H](O)[C@H]2O)c1 | > 100 | 
4 | CC(=O)c1cc(O)cc(O)c1 | > 100 | 
5 | CC(=O)c1cc(O)cc(O[C@@H]2O[C@H](CO)[C@@H](O)[C@H]2O)c1 | > 100 | 
6 | CC(=O)c1c(O)cc(O)cc1O[C@H]1O[C@H](CO)[C@@H](O)[C@H](O)[C@H]1O | 30.8 | 
7 | O=C(CCc1ccccc1)c1ccccc1O[C@@H]1O[C@H](CO)[C@@H](O)[C@H]1O | > 100 | 
8 | CC(=O)c1ccc(O)cc1O | > 100 | 
9 | CC(=O)c1c(O)cc(O)cc1O [2,4,6-TRIHYDROXYACETOPHENONE] | > 100 | 
10 | CC(=O)c1c(O)cccc1O[C@H]1O[C@H](CO)[C@@H](O)[C@H](O)[C@H]1O | 53.9 | 

The next lines start with results.

Row | Ki [1] [µM] | SMILES | further results
11 | 2.88 | O=C(CCc1ccc(O)cc1)c1c(O)cc(O)cc1O[C@@H]1O[C@H](CO)[C@@H](O)[C@H]1O | Ki [2]: > 1000 µM
12 | > 100 | O=C(CCc1ccc(O)cc1)c1c(O)cc(O[C@@H]2O[C@H](CO)[C@@H](O)[C@H](O)[C@H]2O)cc1O | 
13 | 32.3 | O=C(CCc1ccc(O)cc1)c1c(O)cc(O)cc1O [PHLORETIN] | 
14 | 42.1 | CC(=O)c1c(O)cccc1O[C@@H]1O[C@H](CO)[C@@H](O)[C@H]1O | 
15 | > 100 | CC(=O)c1ccc(O[C@H]2O[C@H](CO)[C@@H](O)[C@H](O)[C@H]2O)cc1O | 
16 | 12.4 | CC(=O)c1c(O)cc(O)cc1O[C@@H]1O[C@H](CO)[C@@H](O)[C@H]1O | 
17 | 16 | O=C(CCc1ccc(O)cc1)c1c(O)cc(O)cc1O[C@@H]1O[C@H](CO)[C@@H](O)[C@H](O)[C@H]1O [PHLORIZIN] | IC50 [3]: 250 µM; IC50 [4]: 100 µM; Ki [2]: > 1000 µM
18 | 30 | Oc1ccc(CCCc2c(O)cc(O)cc2O)cc1 | 
19 | 12.3 | OC[C@H]1O[C@@H](Oc2cc(O)cc(O)c2CCCc2ccc(O)cc2)[C@H](O)[C@@H](O)[C@@H]1O | 
